Measured values from PubChem BioAssay AID179 (DTP/NCI, 2004).
pEC50, pIC50: −log10 of the molar value. Several values for one entry are separate records, joined by “and”; a condition that tells them apart may be missing. Identical values can stand only once. Activity calls are given as the source filed them.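 How the source made its calls: active means compounds giving half or more protection of infected cells from virus-caused growth loss, again on retest; inactive means the rest.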 Where a SMILES comes first, the peptide text is derived from it. [ ]: non-standard residue; d: D form. The star is where a group is joined. ξ: configuration not given here. ξW = NC(Cc1c[nH]c2ccccc12)C(=O)O; X18 = O=C(O)[C@H]1CCC[C@H]1N*; ξF = NC(Cc1ccccc1)C(=O)O; Boc = CC(C)(C)OC(=O)*; ξK = NCCCCC(N)C(=O)O; ξT = CC(O)C(N)C(=O)O; tBu = CC(C)(C)*

Test system: CEM cells HIV-1 protection, formazan growth assay
Assay: NCI AIDS Antiviral Assay
Conditions: for pIC50: measured here: growth of uninfected CEM cells
Outline: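 Category rules: moderately active means at least 50% protection on retest, and confirmed active means 100% protection reproducibly. The underlying data came from a formazan growth assay in HIV-1-infected CEM cells.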

Compound	pEC50	pIC50	outcome
O=[N+]([O-])c1ccc(Nc2ccc(Cl)cc2)c2nonc12	< 4.36	4.82	–
Cc1cc(C)nc(NS(=O)(=O)c2ccc(N=c3c4ccccc4n(C)c4ccccc34)cc2)n1	–	–	inactive
COc1cc(OC)cc(C2(C(=O)O)CCN(C)CC2)c1	< 3.05	4.01	–
CNCCC=C1c2ccccc2CCc2ccccc21	< 3.70	4.54 and 4.48	–
CCOC(=O)[C@@H](NC(=O)OC(C)(C)C)[C@@H](O)C(=O)OCC	< 3.70	< 3.70	–
Cc1ccc(NC(=O)CC2SC(N)=NC2=O)cc1C (centres undefined)	–	–	inactive
CC(C)C1OC(N)=C(C#N)C1(C#N)C#N (centres undefined)	< 3.70	5.13	–
OC1(C#CCN2CCCC2)c2ccccc2Sc2ccccc21.[C-]#[O+].[C-]#[O+].[C-]#[O+].[C-]#[O+].[C-]#[O+].[C-]#[O+].[Co].[Co]	< 3.70	5.38	–
O=C(c1cccs1)N(C(=O)N1CCC(c2ccccc2)CC1)c1ccccc1	< 3.70	< 3.70	–
CCOC(=O)c1c2c(nc3c1CCC/C3=C\c1ccccc1)/C(=C/c1ccccc1)CCC2	< 3.70	< 3.70	–
Nc1ncnc2c1nc1n2C2OC(CO)C(O)C2O1 (centres undefined)	< 3.47	< 3.47	–
CCC(C)[C@@H](NCc1ccccc1)[C@H](OCc1ccccc1)[C@@H]1COC(C)(C)O1 (some centres undefined)	< 3.70	4.65	–
N#C/C(=C/NC(=S)c1ccncc1)C(N)=O	< 3.70	< 3.70	–
NC(=NCC(=O)O)c1ncn(C2OC(CO)C(O)C2O)n1 (centres undefined)	–	–	inactive
N#Cc1cc2c(n(C3OC(CO)C(O)C(O)C3O)c1=S)CCCCCC2 (centres undefined)	< 3.70	< 3.70	–
CCOC(=O)/C(=C\c1ccc(N(C)C)cc1)P(=O)(OCC)OCC	< 3.29	4.26	–
CC(OC(C)(C)C)C(NC(=O)C(CCCCNC(=O)OC(C)(C)C)NC(=O)C(Cc1c[nH]c2ccccc12)NC(=O)C(N)Cc1ccccc1)C(=O)NC(Cc1ccccc1)C(=O)N[C@@H]1CCC[C@@H]1C(=O)O (some centres undefined) (H-[ξF][ξW][ξK](Boc)[ξT](tBu)[ξF]-X18)	–	–	inactive
Cc1ccc(-c2n[nH]c(=O)n2/N=C\c2ccc([N+](=O)[O-])cc2)cc1	< 3.70	4.23	–
CCOC(=O)C1=NN(c2ccc([N+](=O)[O-])cc2)[C@@]2(C)C[C@]3(c4ccccc4)N(c4ccc([N+](=O)[O-])cc4)N=C(C(=O)OCC)N3c3ccccc3N12	< 3.70	< 3.70	–
C=C[C@]1(O)CCC[C@]2(C)C(=O)CCC12C (some centres undefined)	–	–	inactive
Cc1ccc(C)c(NC(=O)C(=O)CC(=O)C2CCOC2=O)c1 (centres undefined)	–	–	inactive

Compound	pEC50	pIC50	outcome
CSC1C(=O)Nc2ccc3ccccc3c21 (centres undefined)	< 3.70	4.99	–
CC(=O)Nc1c(C(=O)O)[nH]c(=O)[nH]c1=O	< 3.70	< 3.70	–
Cc1c(Cl)ccc2c1NC(=O)C2(O)CC(=O)c1ccc(Cl)cc1 (centres undefined)	< 4.50	< 4.50	–
O=[N+]([O-])c1cc(-c2ccc([As](=O)(O)O)cc2)ccc1[As](=O)(O)O	< 3.70	< 3.70	–
CC(C)[C@H]1CO[C@@H]2CCC(=O)N12	< 2.98	< 2.98	–
CC#CCC1CCC(OCC)=CC1=O (centres undefined)	–	–	inactive
COc1ccccc1NC(=O)C(C#N)=C(SC)SC	< 3.70	5.05	–
COc1ccc(/C=C2\CCCCC2=O)cc1	–	–	inactive
CCCCCCCC(=O)OCC1OC(OC)C(NC(=O)N(CCCl)N=O)C(O)C1O (centres undefined)	< 4.10	5.07	–
O=C1OC(c2ccc(Cl)c3ccccc23)c2ccccc21 (centres undefined)	< 4.75	< 4.75	–
Nc1cnn2nnnc2c1Cl	< 3.70	< 3.70	–
Cc1ccc(SSc2ccc(C(C)(C)C)cc2)cc1	< 3.70	5.37	–
CCOC(=O)/C(C#N)=C/c1ccc(C#N)cc1	< 4.64	< 4.64	–
NCCCCCC(CCN)SCC1OC(n2cnc3c(N)ncnc32)C(O)C1O (centres undefined)	< 3.70	3.97	–
CCCCCCCCCCNC(=S)OC	–	–	inactive
O=c1[nH]nc(Cn2c3ccc(Br)cc3c3nc4ccccc4nc32)n1C1CCCCC1	< 3.70	3.76	–
O=C1NC(=O)C2(CC2)N1	< 3.70	< 3.70	–
c1ccc(-c2c[se]nn2)cc1	< 3.76	4.03	–
CC(C)(O)/C=C/C(=O)[C@](C)(O)[C@H]1[C@H](O)C[C@@]2(C)[C@@H]3CC=C4[C@@H](C=C(O)C(=O)C4(C)C)[C@]3(C)C(=O)C[C@]12C	< 6.70	7.49	–
C/C=C/c1cc(=O)c([C@@H]2OC(=O)c3cc(OC)cc(OC)c32)co1	< 3.70	4.08	–
CC1(C)CCCCCCC2OC2CCCCCC(C)(C)C1=O (centres undefined)	< 3.70	4.42	–

Compound	pEC50	pIC50	outcome
COC(=O)c1c(C)c(=O)n(C)c(=O)n1C	–	–	inactive
[N-]=[N+]=Nc1ccc(S(=O)(=O)Oc2cc(OS(=O)(=O)c3ccc(N=[N+]=[N-])cc3)cc(OS(=O)(=O)c3ccc(N=[N+]=[N-])cc3)c2)cc1	< 5.39	< 5.39	–
CN1CCC2(CC1)OCCN2CCO	< 2.90	< 2.90	–
CC1C2(C)OC(=N)C(C#N)(C(c3cccc([N+](=O)[O-])c3)O2)C1(C#N)C#N (centres undefined)	< 3.70	4.93	–
Cc1ccc(C2(C)CC(C)(C)c3ccc(C)cc3O2)c(O)c1 (centres undefined)	< 3.70	4.69	–
O=NNc1ccc(S(=O)(=O)c2ccc(NN=O)cc2)cc1	–	–	inactive
Cc1cccc(NC(=O)Nc2ccc(F)cc2)n1	3.89	< 3.70	–
CC(C)N([P-]C(=O)[P-]N(C(C)C)C(C)C)C(C)C.[C-]#[O+].[C-]#[O+].[C-]#[O+].[C-]#[O+].[C-]#[O+].[C-]#[O+].[Fe].[Fe] (centres undefined)	< 5.45	< 5.45	–
COc1cc2ccc(=O)oc2cc1O	< 3.47	4.26	–
O=C(Nc1ccc(-c2ccccc2)oc1=O)c1ccccc1	< 4.00	< 4.00	–
Cc1cc(N(CCC#N)CCC#N)ccc1N=Nc1cccc(C(=O)O)c1	< 4.14	4.24	–
CCOC(=O)c1nc2ccc(C(F)(F)F)cc2nc1Nc1cc(OC)c(OC)c(OC)c1	< 3.70	< 3.70	–
CC1C(c2ccc3c(c2)OCO3)c2cc3c(cc2OC1N1CCCC1)OCO3 (centres undefined)	< 4.00	4.32	–
CCOC(=O)C1=C(O)C2C3CC4C2C(O)=C(C(=O)OCC)C2C1C3C42 (centres undefined)	< 3.70	4.03	–
O=C1Nc2ccccc2Sc2ccccc21	4.03	3.94	–
COc1ccc(-c2nnc3n(C)c4ccccc4n3c2=O)cc1	< 4.00	< 4.00	–
CS(=O)(=O)N1CC(CCl)c2ccc([N+](=O)[O-])cc21 (centres undefined)	4.04	< 3.70	–
CC(C)=CCc1[nH]c2ccccc2c1C1=C(O)C(=O)C(c2c(CC=C(C)C)[nH]c3ccccc23)=C(O)C1=O	< 3.70	5.76	–
C=C1C(=O)OC2/C=C(\C)C3OC3/C=C(/C(=O)OC)C(OC(C)=O)C(OC(=O)C(C)(O)C(C)OC(C)=O)C12 (centres undefined)	< 3.89	6.08	–
C=C1CC(COc2ccc3c(C)c(Cl)c(=O)oc3c2)(c2ccccc2)OC1=O (centres undefined)	< 3.70	6.44	–
CCCCC[C@@H]1CCCC2C1CC[C@@H](CC/C=C/C(=O)OC)N2C(=O)OC(C)C(Cl)(Cl)Cl (some centres undefined)	–	–	inactive
